Columns and labels:
BrSK1(h) = molecular target: T1, BrSK1(h) (Homo sapiens, UniProt Q8TDC3); assay: Upstate kinase activity inhibition assay BrSK1(h); assay type: biochemical; settings: 40 min; read-out: percentage of enzyme activity that remains
T1 construct: purchased Upstate (KinaseProfiler service)

CDK9/cyclin T1(h) = molecular target: T2, CDK9/cyclin T1(h) (Homo sapiens, UniProt P50750); assay: Upstate kinase activity inhibition assay CDK9/cyclin T1(h); assay type: biochemical; settings: 40 min; read-out: percentage of enzyme activity that remains
T2 construct: purchased Upstate (KinaseProfiler service)

cKit(D816V)(h) = molecular target: T3, cKit(D816V)(h) (Homo sapiens, UniProt P10721, D816V); assay: Upstate kinase activity inhibition assay cKit(D816V)(h); assay type: biochemical; settings: 40 min, read-out: percentage of enzyme activity that remains
T3 construct: purchased Upstate (KinaseProfiler service)

CSK(h) = molecular target: T4, CSK(h) (Homo sapiens, UniProt P41240); assay: Upstate kinase activity inhibition assay CSK(h); assay type: biochemical
T4 construct: purchased Upstate (KinaseProfiler service)

cSRC(h) = cSRC(h) (Homo sapiens, UniProt P12931); assay: Upstate kinase activity inhibition assay cSRC(h); assay type: biochemical; settings: 40 min; read-out: percentage of enzyme activity that remains
Sequence of cSRC(h) (P12931 whole entry): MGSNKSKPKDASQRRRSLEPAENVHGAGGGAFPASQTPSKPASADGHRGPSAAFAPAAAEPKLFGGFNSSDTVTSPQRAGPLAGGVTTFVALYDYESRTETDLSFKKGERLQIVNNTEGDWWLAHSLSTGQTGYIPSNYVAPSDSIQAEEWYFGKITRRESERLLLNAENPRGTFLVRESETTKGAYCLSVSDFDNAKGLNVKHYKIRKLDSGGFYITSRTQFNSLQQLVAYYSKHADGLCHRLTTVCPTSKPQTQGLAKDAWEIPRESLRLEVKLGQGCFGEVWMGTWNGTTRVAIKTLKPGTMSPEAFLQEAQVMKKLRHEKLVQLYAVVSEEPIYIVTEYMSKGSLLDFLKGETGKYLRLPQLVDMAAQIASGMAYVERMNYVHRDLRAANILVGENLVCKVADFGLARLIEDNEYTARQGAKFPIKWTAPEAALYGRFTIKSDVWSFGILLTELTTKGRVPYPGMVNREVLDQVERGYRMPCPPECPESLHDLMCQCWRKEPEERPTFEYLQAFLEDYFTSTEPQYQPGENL

DDR2(h) = molecular target: T5, DDR2(h) (Homo sapiens, UniProt Q16832); assay: Upstate kinase activity inhibition assay DDR2(h); assay type: biochemical; settings: 40 min; read-out: percentage of enzyme activity that remains
T5 construct: purchased Upstate (KinaseProfiler service)

JAK2(h) = molecular target: T6, JAK2(h) (Homo sapiens, UniProt O60674); assay: Upstate kinase activity inhibition assay JAK2(h); assay type: biochemical
T6 construct: purchased Upstate (KinaseProfiler service)
T6 sequence (O60674 whole entry): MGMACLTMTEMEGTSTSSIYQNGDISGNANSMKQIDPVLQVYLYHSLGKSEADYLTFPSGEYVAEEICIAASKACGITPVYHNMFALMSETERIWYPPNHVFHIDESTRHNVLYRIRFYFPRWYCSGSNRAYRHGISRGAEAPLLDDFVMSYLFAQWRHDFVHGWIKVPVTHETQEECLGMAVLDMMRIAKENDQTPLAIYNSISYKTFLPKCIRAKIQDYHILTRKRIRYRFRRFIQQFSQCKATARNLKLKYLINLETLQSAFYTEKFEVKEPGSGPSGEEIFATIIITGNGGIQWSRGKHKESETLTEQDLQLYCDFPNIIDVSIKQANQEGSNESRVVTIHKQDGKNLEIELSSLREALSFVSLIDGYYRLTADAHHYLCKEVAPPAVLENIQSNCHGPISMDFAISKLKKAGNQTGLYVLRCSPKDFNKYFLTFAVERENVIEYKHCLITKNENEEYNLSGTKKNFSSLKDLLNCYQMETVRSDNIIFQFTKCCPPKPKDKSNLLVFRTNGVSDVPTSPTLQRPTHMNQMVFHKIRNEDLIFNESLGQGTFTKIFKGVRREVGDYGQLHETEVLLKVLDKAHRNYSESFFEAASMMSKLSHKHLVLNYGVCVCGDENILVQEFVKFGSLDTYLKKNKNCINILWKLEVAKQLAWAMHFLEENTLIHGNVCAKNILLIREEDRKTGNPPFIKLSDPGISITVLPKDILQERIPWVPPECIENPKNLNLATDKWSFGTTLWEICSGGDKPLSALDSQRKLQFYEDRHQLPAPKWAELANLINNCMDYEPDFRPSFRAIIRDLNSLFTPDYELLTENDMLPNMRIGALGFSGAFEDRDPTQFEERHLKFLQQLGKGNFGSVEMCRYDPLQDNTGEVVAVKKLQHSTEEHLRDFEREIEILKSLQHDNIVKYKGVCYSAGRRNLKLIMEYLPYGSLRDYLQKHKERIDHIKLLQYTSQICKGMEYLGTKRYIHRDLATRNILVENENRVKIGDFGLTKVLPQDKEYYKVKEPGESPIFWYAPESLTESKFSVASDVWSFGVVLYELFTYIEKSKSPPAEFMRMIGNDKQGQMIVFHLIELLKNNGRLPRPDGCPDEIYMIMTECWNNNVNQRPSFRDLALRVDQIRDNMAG

PKA(h) = PKA(h) (Homo sapiens, UniProt P17612); assay: Upstate kinase activity inhibition assay PKA(h); assay type: biochemical; settings: 40 min; read-out: percentage of enzyme activity that remains
PKCι(h) = PKCι(h) (Homo sapiens, UniProt P41743); assay: Upstate kinase activity inhibition assay PKCι(h); assay type: biochemical; settings: 40 min; read-out: percentage of enzyme activity that remains
PrKX(h) = molecular target: T7, PrKX(h) (Homo sapiens, UniProt P51817); assay: Upstate kinase activity inhibition assay PrKX(h); assay type: biochemical; settings: 40 min; read-out: percentage of enzyme activity that remains
T7 construct: purchased Upstate (KinaseProfiler service)

Rse(h) = molecular target: T8, Rse(h) (Homo sapiens, UniProt Q06418); assay: Upstate kinase activity inhibition assay Rse(h); assay type: biochemical; settings: 40 min; read-out: percentage of enzyme activity that remains
T8 construct: purchased Upstate (KinaseProfiler service)

SAPK3(h) = molecular target: T9, SAPK3(h) (Homo sapiens, UniProt P53778); assay: Upstate kinase activity inhibition assay SAPK3(h); assay type: biochemical; settings: 40 min; read-out: percentage of enzyme activity that remains
T9 construct: purchased Upstate (KinaseProfiler service)
T9 sequence (P53778 whole entry): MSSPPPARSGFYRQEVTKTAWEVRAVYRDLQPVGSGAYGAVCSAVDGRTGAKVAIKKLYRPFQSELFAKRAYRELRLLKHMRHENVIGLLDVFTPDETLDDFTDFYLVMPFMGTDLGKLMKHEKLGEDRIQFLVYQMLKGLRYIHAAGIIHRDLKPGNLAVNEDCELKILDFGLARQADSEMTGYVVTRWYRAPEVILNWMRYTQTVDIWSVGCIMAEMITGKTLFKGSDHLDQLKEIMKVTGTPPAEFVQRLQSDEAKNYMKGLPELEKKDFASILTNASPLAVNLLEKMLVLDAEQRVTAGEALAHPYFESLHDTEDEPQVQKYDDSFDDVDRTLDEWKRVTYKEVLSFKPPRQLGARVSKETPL

Met(h) = Met(h) (Homo sapiens, UniProt P08581); assay: Upstate kinase activity inhibition assay Met(h)
Yes(h) = Yes(h) (Homo sapiens, UniProt P07947); assay: Upstate kinase activity inhibition assay Yes(h); settings: 40 min, read-out: percentage of enzyme activity that remains
Sequence of Yes(h) (P07947 whole entry): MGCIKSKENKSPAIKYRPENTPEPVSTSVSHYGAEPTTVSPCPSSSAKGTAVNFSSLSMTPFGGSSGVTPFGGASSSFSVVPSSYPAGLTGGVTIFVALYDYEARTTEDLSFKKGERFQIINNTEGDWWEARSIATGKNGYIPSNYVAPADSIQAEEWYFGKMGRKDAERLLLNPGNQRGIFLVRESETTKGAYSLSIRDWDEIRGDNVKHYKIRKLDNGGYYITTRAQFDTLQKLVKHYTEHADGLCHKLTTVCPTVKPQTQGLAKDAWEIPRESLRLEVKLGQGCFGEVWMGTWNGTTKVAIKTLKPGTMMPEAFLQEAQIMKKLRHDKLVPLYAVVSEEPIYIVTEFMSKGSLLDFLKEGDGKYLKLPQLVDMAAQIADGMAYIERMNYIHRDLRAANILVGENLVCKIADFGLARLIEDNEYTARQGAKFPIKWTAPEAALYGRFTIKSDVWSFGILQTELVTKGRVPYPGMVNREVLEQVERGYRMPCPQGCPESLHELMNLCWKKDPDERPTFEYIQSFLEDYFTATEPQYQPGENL

CHK1(h) = CHK1(h) (Homo sapiens, UniProt O14757); assay: Upstate kinase activity inhibition assay CHK1(h)
Sequence of CHK1(h) (O14757 whole entry): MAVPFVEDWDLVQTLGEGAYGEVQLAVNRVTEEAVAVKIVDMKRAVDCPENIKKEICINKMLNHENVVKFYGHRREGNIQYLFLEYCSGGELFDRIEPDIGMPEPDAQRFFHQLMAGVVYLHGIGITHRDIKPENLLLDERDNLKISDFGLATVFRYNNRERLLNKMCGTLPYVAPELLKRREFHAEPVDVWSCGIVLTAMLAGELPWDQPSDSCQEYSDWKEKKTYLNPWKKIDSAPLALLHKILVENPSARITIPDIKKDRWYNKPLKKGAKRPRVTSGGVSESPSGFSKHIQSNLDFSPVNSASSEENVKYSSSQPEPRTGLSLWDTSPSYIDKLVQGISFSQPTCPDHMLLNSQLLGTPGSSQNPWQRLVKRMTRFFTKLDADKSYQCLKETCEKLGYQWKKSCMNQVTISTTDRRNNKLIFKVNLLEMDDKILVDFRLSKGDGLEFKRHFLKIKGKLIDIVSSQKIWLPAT

Flt3(h) = Flt3(h) (Homo sapiens, UniProt P36888); assay: Upstate kinase activity inhibition assay Flt3(h); settings: 40 min, read-out: percentage of enzyme activity that remains
Sequence of Flt3(h) (P36888 27-993): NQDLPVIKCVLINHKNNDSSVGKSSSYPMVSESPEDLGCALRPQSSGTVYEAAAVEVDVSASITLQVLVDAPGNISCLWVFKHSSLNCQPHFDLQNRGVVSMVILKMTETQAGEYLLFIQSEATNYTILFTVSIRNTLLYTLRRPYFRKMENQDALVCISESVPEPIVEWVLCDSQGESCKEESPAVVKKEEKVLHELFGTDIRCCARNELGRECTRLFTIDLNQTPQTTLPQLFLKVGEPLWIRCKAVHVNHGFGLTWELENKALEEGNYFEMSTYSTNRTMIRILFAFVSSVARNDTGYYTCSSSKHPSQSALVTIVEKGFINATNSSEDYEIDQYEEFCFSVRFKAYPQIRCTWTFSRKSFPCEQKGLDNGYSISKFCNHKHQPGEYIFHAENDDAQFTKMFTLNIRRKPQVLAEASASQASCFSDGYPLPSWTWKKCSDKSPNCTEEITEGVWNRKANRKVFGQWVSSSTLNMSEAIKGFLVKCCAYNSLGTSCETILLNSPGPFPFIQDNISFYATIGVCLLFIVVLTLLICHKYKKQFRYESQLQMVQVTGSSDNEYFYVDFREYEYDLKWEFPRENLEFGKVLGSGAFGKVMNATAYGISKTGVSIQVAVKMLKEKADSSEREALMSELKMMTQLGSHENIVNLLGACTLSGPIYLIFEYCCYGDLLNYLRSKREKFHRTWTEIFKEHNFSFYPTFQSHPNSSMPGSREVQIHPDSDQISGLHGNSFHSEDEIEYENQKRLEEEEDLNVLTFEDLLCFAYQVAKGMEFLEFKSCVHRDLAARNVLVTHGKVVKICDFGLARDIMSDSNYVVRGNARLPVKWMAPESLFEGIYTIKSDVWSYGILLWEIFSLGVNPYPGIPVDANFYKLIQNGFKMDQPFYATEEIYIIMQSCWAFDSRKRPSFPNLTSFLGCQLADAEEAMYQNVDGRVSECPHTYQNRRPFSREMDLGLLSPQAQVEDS

IKKβ(h) = IKKβ(h) (Homo sapiens, UniProt O14920); assay: Upstate kinase activity inhibition assay IKKβ(h); settings: 40 min, read-out: percentage of enzyme activity that remains
MEK1(h) = MEK1(h) (Homo sapiens, UniProt Q02750); assay: Upstate kinase activity inhibition assay MEK1(h); settings: 40 min, read-out: percentage of enzyme activity that remains
PAK6(h) = PAK6(h) (Homo sapiens, UniProt Q9NQU5); assay: Upstate kinase activity inhibition assay PAK6(h); settings: 40 min, read-out: percentage of enzyme activity that remains
Sequence of PAK6(h) (Q9NQU5 whole entry): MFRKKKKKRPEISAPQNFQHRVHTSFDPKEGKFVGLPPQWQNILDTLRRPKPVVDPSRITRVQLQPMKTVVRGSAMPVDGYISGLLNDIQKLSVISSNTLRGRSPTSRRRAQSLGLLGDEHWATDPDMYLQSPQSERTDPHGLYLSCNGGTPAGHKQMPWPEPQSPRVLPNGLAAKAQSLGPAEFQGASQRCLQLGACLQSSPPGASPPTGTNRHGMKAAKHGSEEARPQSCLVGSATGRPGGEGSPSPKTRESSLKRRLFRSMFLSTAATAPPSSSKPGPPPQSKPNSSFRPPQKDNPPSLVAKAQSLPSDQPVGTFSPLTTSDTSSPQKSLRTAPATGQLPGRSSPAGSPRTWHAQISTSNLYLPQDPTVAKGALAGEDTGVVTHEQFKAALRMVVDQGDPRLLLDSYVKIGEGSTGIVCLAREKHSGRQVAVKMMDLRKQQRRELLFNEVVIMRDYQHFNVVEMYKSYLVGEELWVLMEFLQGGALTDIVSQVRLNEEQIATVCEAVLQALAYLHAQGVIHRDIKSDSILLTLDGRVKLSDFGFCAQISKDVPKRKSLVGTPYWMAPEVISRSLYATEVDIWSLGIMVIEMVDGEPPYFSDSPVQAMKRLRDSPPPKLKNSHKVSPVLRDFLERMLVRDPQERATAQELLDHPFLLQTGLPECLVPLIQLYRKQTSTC

Plk3(h) = Plk3(h) (Homo sapiens, UniProt Q9H4B4); assay: Upstate kinase activity inhibition assay Plk3(h); settings: 40 min, read-out: percentage of enzyme activity that remains
Rsk3(h) = Rsk3(h) (Homo sapiens, UniProt Q15349); assay: Upstate kinase activity inhibition assay Rsk3(h); settings: 40 min, read-out: percentage of enzyme activity that remains
SGK2(h) = SGK2(h) (Homo sapiens, UniProt Q9HBY8); assay: Upstate kinase activity inhibition assay SGK2(h); settings: 40 min, read-out: percentage of enzyme activity that remains
TAK1(h) = TAK1(h) (Homo sapiens, UniProt O43318); assay: Upstate kinase activity inhibition assay TAK1(h); settings: 40 min, read-out: percentage of enzyme activity that remains
Sequence of TAK1(h) (O43318 1-303 limits assumed): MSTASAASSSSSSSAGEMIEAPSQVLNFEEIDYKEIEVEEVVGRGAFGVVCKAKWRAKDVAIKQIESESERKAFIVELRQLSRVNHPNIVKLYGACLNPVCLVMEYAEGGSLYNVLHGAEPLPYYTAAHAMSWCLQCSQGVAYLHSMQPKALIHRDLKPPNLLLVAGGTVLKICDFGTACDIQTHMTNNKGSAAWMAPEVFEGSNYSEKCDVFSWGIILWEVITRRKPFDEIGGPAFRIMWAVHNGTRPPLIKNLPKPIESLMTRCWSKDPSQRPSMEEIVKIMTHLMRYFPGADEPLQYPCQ

ZIPK(h) = ZIPK(h) (Homo sapiens, UniProt O43293); assay: Upstate kinase activity inhibition assay ZIPK(h); settings: 40 min, read-out: percentage of enzyme activity that remains
ErbB4(h) = ErbB4(h) (Homo sapiens, UniProt Q15303); assay: Upstate kinase activity inhibition assay ErbB4(h); settings: 40 min, read-out: percentage of enzyme activity that remains
FGFR3(h) = FGFR3(h) (Homo sapiens, UniProt P22607); assay: Upstate kinase activity inhibition assay FGFR3(h); settings: 40 min, read-out: percentage of enzyme activity that remains
GSK3α(h) = GSK3α(h) (Homo sapiens, UniProt P49840); assay: Upstate kinase activity inhibition assay GSK3α(h); settings: 40 min, read-out: percentage of enzyme activity that remains
HIPK3(h) = HIPK3(h) (Homo sapiens, UniProt Q9H422); assay: Upstate kinase activity inhibition assay HIPK3(h); settings: 40 min, read-out: percentage of enzyme activity that remains
NEK11(h) = NEK11(h) (Homo sapiens, UniProt Q8NG66); assay: Upstate kinase activity inhibition assay NEK11(h); settings: 40 min, read-out: percentage of enzyme activity that remains
TSSK1(h) = TSSK1(h) (Homo sapiens, UniProt Q9BXA7); assay: Upstate kinase activity inhibition assay TSSK1(h); settings: 40 min, read-out: percentage of enzyme activity that remains

## Cc1cc(Nc2cc(N3CCN(C)CC3)nc(Sc3ccc(NC(=O)C4CC4)cc3)n2)n[nH]1 [Compound E, Cyclopropane carboxylic acid {4-[4-(4-methyl-piperazin-1-yl)-6-(5-methyl-2H-pyrazol-3-ylamino)-pyrimidin-2-ylsulphanyl]-phenyl}-amide]
BrSK1(h)
  remaining activity at 0.2 µM: 115%
  remaining activity at 4 µM: 97%
CDK9/cyclin T1(h)
  remaining activity at 0.2 µM: 80%
  remaining activity at 4 µM: 84%
cKit(D816V)(h)
  remaining activity at 0.2 µM: 89%
  remaining activity at 4 µM: 79%
CSK(h); 0.2 μM Compound E
  percentage of enzyme activity that remains: 108%
CSK(h); 4 μM Compound E
  percentage of enzyme activity that remains: 87%
cSRC(h)
  remaining activity at 0.2 µM: 87%
  remaining activity at 4 µM: 25%
DDR2(h)
  remaining activity at 0.2 µM: 100%
JAK2(h); 0.2 μM Compound E
  percentage of enzyme activity that remains: 75%
JAK2(h); 4 μM Compound E
  percentage of enzyme activity that remains: 19%
PKA(h)
  remaining activity at 0.2 µM: 100%
  remaining activity at 4 µM: 102%
PKCι(h)
  remaining activity at 0.2 µM: 100%
  remaining activity at 4 µM: 78%
PrKX(h)
  remaining activity at 0.2 µM: 97%
  remaining activity at 4 µM: 96%
Rse(h)
  remaining activity at 0.2 µM: 94%
  remaining activity at 4 µM: 77%
SAPK3(h)
  remaining activity at 0.2 µM: 132%
  remaining activity at 4 µM: 115%
Met(h); 0.2 μM Compound E
  percentage of enzyme activity that remains: 105%
Met(h); 4 μM Compound E
  percentage of enzyme activity that remains: 50%
Yes(h)
  remaining activity at 0.2 µM: 39%
  remaining activity at 4 µM: 2%
CHK1(h); 0.2 μM Compound E
  percentage of enzyme activity that remains: 99%
CHK1(h); 4 μM Compound E
  percentage of enzyme activity that remains: 92%
Flt3(h)
  remaining activity at 0.2 µM: 21%
  remaining activity at 4 µM: 7%
IKKβ(h)
  remaining activity at 0.2 µM: 106%
  remaining activity at 4 µM: 117%
MEK1(h)
  remaining activity at 0.2 µM: 115%
  remaining activity at 4 µM: 82%
PAK6(h)
  remaining activity at 0.2 µM: 92%
  remaining activity at 4 µM: 92%
Plk3(h)
  remaining activity at 0.2 µM: 107%
  remaining activity at 4 µM: 105%
Rsk3(h)
  remaining activity at 0.2 µM: 96%
  remaining activity at 4 µM: 60%
SGK2(h)
  remaining activity at 0.2 µM: 102%
  remaining activity at 4 µM: 102%
TAK1(h)
  remaining activity at 0.2 µM: 99%
  remaining activity at 4 µM: 66%
ZIPK(h)
  remaining activity at 0.2 µM: 100%
ErbB4(h)
  remaining activity at 0.2 µM: 53%
  remaining activity at 4 µM: 52%
FGFR3(h)
  remaining activity at 0.2 µM: 87%
  remaining activity at 4 µM: 29%
GSK3α(h)
  remaining activity at 0.2 µM: 106%
  remaining activity at 4 µM: 102%
HIPK3(h)
  remaining activity at 0.2 µM: 112%
  remaining activity at 4 µM: 95%
NEK11(h)
  remaining activity at 0.2 µM: 106%
  remaining activity at 4 µM: 106%
TSSK1(h)
  remaining activity at 0.2 µM: 122%
  remaining activity at 4 µM: 99%
